Source: a melting point compilation (Tetko et al.; mined from patent text by program, amines drawn as free bases though some values may be those of a salt)

Row | Compound | melting point [°C]
1 | CC(C)(C)c1cc(/C=C/c2nnc(N)o2)cc(C(C)(C)C)c1O | 221
2 | CCCCCCCCCCCCCCCCC[C@@H](C[C@@H]1OC(=O)[C@H]1CC)OC(=O)[C@H](CC(C)C)NC=O | 60 to 61
3 | CCCCCCc1cnc(-c2ccc(CCCCC)c(F)c2)nc1 | 30
4 | Cn1c(C(F)(F)F)cc(=O)[nH]c1=O | 140 to 142
5 | CCOc1c([C@@H]2C[C@H]2C=O)cc(C(C)(C)C)cc1C(C)(C)C (racemic) | 123 to 126
6 | CCC(=O)c1ccc(OCCOC)cc1 | 31 to 35
7 | CS(=O)(=O)N(c1cc(F)c(F)cc1C#N)S(C)(=O)=O | 144
8 | COc1cccc(/C=C/C(=O)/C=C/c2cccc(OC)c2OC)c1OC | 106 to 108
9 | N=C(N)NCCc1ccc(OCCCCC(c2ccccc2)(c2ccccc2)c2ccccc2)cc1 | 119 to 121
10 | c1c(NC23CC4CC(CC(C4)C2)C3)nc(N2CCCC2)nc1N1CCNCC1 | 152 to 156
11 | CO[C@@H]1C=C(S(=O)(=O)c2ccccc2)[C@@H](C(C)C)CC1 | 113
12 | CC(C)(C)OC(=O)N[C@H]1CC[C@H](CC(=O)O)CC1 | 161 to 163
13 | OC1CCCN(CC(O)COc2ccc(-c3ccc(Cl)cc3)cc2)C1 (stereo not drawn) | 95 to 97
14 | C[C@H](O)[C@@H](O)[C@@H](O)C(=O)CO | 158 to 160
15 | CC(C)N1CC2CC(C1)CN(C(C)(O)c1ccc(F)cc1)C2 (stereo not drawn) | 53 to 54
16 | CCCCc1ncc(CCC(=O)O)n1Cc1ccccc1Cl | 164
17 | COc1ccc2c(C(=O)c3ccc(OC4CCCCC4N(C)C)cc3)c(-c3ccc(OCCN4CCCC4)cc3)sc2c1 (stereo not drawn) | 61 to 64
18 | COc1cc(C(=O)CCCN2CCC(OC(=O)c3cc(Cl)c(N)c4cc(C)oc34)CC2)cc(OC)c1OC | 129
19 | Cc1ccc(C(Br)=NOS(C)(=O)=O)cc1 | 82.5 to 91.5
20 | Clc1c(Cl)c(Cl)c2c(nc(Cl)n2COCCOCc2ccccc2)c1Cl | 95

Row | Compound | melting point [°C]
21 | N#Cc1ccc(-c2cn(-c3ccc(OCC(F)(F)F)cc3)cn2)cc1 | 179
22 | Nc1cc(C(F)(F)C(F)(F)OC(F)(F)C(F)(F)OC(F)(F)C(F)(F)c2ccc(O)c(N)c2)ccc1O | 150 to 152
23 | CCCCCCCCCC(=O)Nc1cc(NC(=O)CCCCCCCCC)cc(N(CC(=O)OCc2ccccc2)CC(=O)OCc2ccccc2)c1 | 127 to 129
24 | C=CCOC(=O)NC(C)(C)c1ccc(-c2nc(Nc3ccc(CCn4ccnc4)cc3)ncc2Cl)cc1 | 72 to 78
25 | COc1c(C)cnc(CSc2nc(C)cc(=O)[nH]2)c1C | 231 to 233
26 | C[C@H](O)[C@H](CNC(=O)c1ccccc1)C(=O)O | 99 to 101
27 | Cc1c(SCCCN2CCN(Cc3ccc(Cl)s3)CC2)ccnc1CSc1nc2cc(F)c(F)cc2[nH]1 | 79 to 82
28 | Cc1[nH]nc(C(F)(F)F)c1-c1cncc(OC2SCC(O)C(O)C2O)c1 (stereo not drawn) | 234
29 | CNC(=O)Nc1ccc2c(c1)C(CN1CCC(c3ccc(F)cc3)CC1)CC2 (stereo not drawn) | 170 to 173
30 | COc1cccc(CCCCCCOc2ccc(C(=O)O)c(O)c2)c1OC | 115 to 116
31 | COc1cccc(OC)c1CNC(=O)c1ccc2c(c1)C(=NNc1ccc(S(N)(=O)=O)cc1)C(=O)N2 | > 250
32 | CC(CCCC(C)(C)O)C1CCC2C3C=CC4=CC(=O)C=CC4(C)C3CCC12C (stereo not drawn) | 180 to 182
33 | COC(C(=O)O)c1ccsc1 (stereo not drawn) | 80 to 82
34 | CCN(Cc1cc(Br)ccc1OCc1ccccc1)c1ccc(C(=O)NCc2cccnc2)cc1 | 119 to 121
35 | CC(C)(C)OC(=O)[C@H]1CCCN1S(=O)(=O)c1ccc2c(Cl)cnc(Cl)c2c1 | 80 to 82
36 | CCOC(=O)c1cnc2nc(C)ccc2c1OCC | 82 to 83
37 | COC(=O)CSc1ccc(N2CC(CNC(C)=O)OC2=O)cc1F (stereo not drawn) | 119 to 120
38 | C#CC(C)N1CCNC1=O (stereo not drawn) | 90 to 92
39 | CCOC(=O)C(=CNC1CC1)C(=O)c1c(F)c(F)c(Br)c(F)c1F | 167 to 168
40 | c1ccc(-c2cccn3cnnc23)nc1 | 212 to 214

Row | Compound | melting point [°C]
41 | CCOc1cc(Cc2cnc(N)nc2N)cc(OCC)c1C(O)CS(C)(=O)=O (stereo not drawn) | 205 to 206
42 | O=C(O)Cn1cc(Cc2nc3c(F)c(F)cc(F)c3s2)c2c(Cl)cccc21 | 203 to 206
43 | COc1ccc(-n2nc3c4c([nH]cc-3c2=O)CCCCCCCC4)cc1 | 143 to 150
44 | Cc1cc(C2=NOC(c3cc(Cl)cc(Cl)c3)(C(F)(F)F)C2)ccc1C(=O)N(C)c1cncnc1 (stereo not drawn) | 197 to 200
45 | CCOC(=O)c1c(C(F)(F)F)nc(C(F)(F)F)c(C(=O)OCC)c1N | 52 to 58
46 | O=CNCc1cc(C(O)CNCCCCCCOCCCCc2ccccc2)ccc1O (stereo not drawn) | 76 to 77
47 | CCCCOC(=O)N=C(NC(=O)c1ccccc1)SC | 99 to 101
48 | O=C(O)CN1C(=O)C(=Cc2ccccc2C(=O)O)SC1=S | > 300
49 | CC(=O)OCC1OC(n2c(F)nc3c(N)ncnc32)C(OC(C)=O)C1OC(C)=O (stereo not drawn) | 98 to 101
50 | O=C(C1Oc2ccccc2OC1c1ccccc1)N1CCOCC1 (stereo not drawn) | 148 to 150
51 | Cc1ccc(S(=O)(=O)N(c2ccc(C#N)cc2[N+](=O)[O-])C(C)C)cc1 | 125 to 126
52 | COc1ccc(-c2ccc(N3CCCN(c4ccc(-c5ccc(OC)cc5OC)cn4)CC3)nc2)c(OC)c1 | 161 to 163
53 | OCCc1ccc(OCc2coc(/C=C/c3ccccc3)n2)cc1 | 123 to 124
54 | CCOC(=O)Nc1nc(C)c(-c2nc3ccccc3c(=O)n2-c2cccc(C)c2)s1 | 210 to 211
55 | COC[C@H]1CN(c2ccc([C@H]3CC[C@H](OCSC)CC3)cc2)C(=O)O1 | 54 to 56
56 | COC(=O)c1cc(C(=O)NNC(=O)c2ccco2)c2cc(Cc3ccc(F)cc3)cnc2c1O | 207 to 210
57 | CCCCC(CC)COc1ccc2c(-c3ccc(CO)cc3)c3cc(OCC(CC)CCCC)ccc3c(-c3ccc(CO)cc3)c2c1 (stereo not drawn) | 110 to 112
58 | COc1ccc(N2CCN(Cc3ccc(CNC(C)=O)cc3)CC2)cc1 | 137 to 138

Continued, values first:

Row | melting point [°C] | Compound
59 | 275 to 276 | N=S1C(n2c(S)nnc2-c2ccc(O)cc2)=CC=C1[N+](=O)[O-] (stereo not drawn)
60 | 206 to 207 | CCn1nnc(NC(=O)C2c3ccccc3Cc3ccccc32)n1
61 | 188 to 190 | Cn1c(CN2CC=C(/C=C/c3ccccc3)CC2)nc2ccccc21
62 | 190 to 192 | CN1N=CC=Cc2ccccc21
63 | 252 | COc1cccc2c1[nH]c1c(C(=O)O)cccc12
64 | > 250 | O=c1[nH]c2cscc2c(=O)n1CCN1CCN(c2ccccc2)CC1
65 | 113 to 115 | COc1ccc(-n2nc(CCCO)c(Cl)c2-c2ccc(Cl)cc2)cc1
66 | 170 to 172 | COc1ccc2c(c1)C(=O)C(=Cc1ccncc1)CO2
67 | 283 | COc1ccc(-c2[nH]nc3c2C(=O)c2c(NC(=O)Cc4ccc(N)cc4)cccc2-3)cc1
68 | 85 to 87 | Cc1ccc(C#Cc2cc3ccccc3s2)s1
69 | 173 to 174 | O=C(O)COCCC1CCN(c2cnc(-c3ccccc3)c(-c3ccccc3)n2)CC1
70 | 173 to 174 | O=c1cc(-c2cccs2)oc2cccc(OCCOc3ccccc3)c12
71 | 239 | Cc1cc(Nc2ccc(Cl)cc2)nc(-c2cccc(Cl)n2)n1
72 | 245 | Nc1cc(C(=O)O)cc(S(N)(=O)=O)c1Nc1ccc2ccccc2c1
73 | 124 to 126 | Cc1ccc(NC(=O)N(Cc2ccccc2)Cc2ccccc2)c(C)c1
74 | 95 to 100 | O=C(O)c1cn(CCCc2ccccc2)c2cc(C3CC3)nn2c1=O
75 | 257 | CC(=O)n1c(C(F)(F)F)nc(-c2ccc(S(C)(=O)=O)cc2)c1-c1cc(C)cc(Cl)c1
76 | 257 to 259 | CCN1C(=O)CC(C)(C)c2ccc(-c3nc4ccccc4[nH]3)cc21
77 | 195 to 197 | O=Cc1cc(-c2ccc3nnn(Cc4ccc5ncccc5c4)c3n2)cs1
78 | 175 to 176 | Cc1ccc(F)cc1C(C)(C)CC(O)(Cn1ccc(=O)c2sccc21)C(F)(F)F (stereo not drawn)

Row | melting point [°C] | Compound
79 | 151 to 152 | COC(=O)c1cccc(-c2nc(-c3ccc(C(F)(F)F)cc3)co2)c1
80 | 268 to 270 | Cn1cc(-c2cc3cccnc3[nH]2)c2cc(CCC(=O)O)ccc21
81 | 196 to 198 | Cc1nc(-n2ccc(OCC3CCCC3)cc2=O)sc1C(=O)NCc1ccccc1
82 | 104 | CS(=O)(=O)c1cccc(-c2ccc(C3C(CCC(O)c4ccc(F)cc4)C(=O)N3c3ccc(F)cc3)cc2)c1 (stereo not drawn)
83 | 114 to 115 | CC(C#N)(c1ccccc1)c1cccnn1 (stereo not drawn)
84 | 112 to 113 | CN(C(=O)c1ccccc1-c1ccc(F)cc1)C1N(C)C(c2ccc(F)cc2)=NC1(C(F)(F)F)C(F)(F)F (stereo not drawn)
85 | 160 to 163 | O=C(Cc1ccccc1I)Nc1ccccc1I
86 | 165 to 175 | O=C(c1ccccc1)c1ccc(-c2ccc(-c3ccc(Cl)cc3)s2)s1
87 | 191 to 192 | CS(=O)(=O)c1ccc(-c2cnn(CC(=O)c3ccc(F)cc3F)c(=O)c2-c2ccc(F)cc2)cc1
88 | 248 | CCn1c(N)c(C(N)=O)c(=O)c2cnc(Nc3ccc(NCC(=O)C4CC4)cc3)nc21
89 | 170 | CCOc1ccccc1NC=C1C(=O)N(c2ccc(S(=O)(=O)N(CC)CC)cc2)N=C1C
90 | 197 to 198 | O=C(O)c1ccccc1N1CCN(c2cccc(C(F)(F)F)c2)C1=O
91 | 229 to 231 | CCC(=O)c1c[nH]c2cc(C(=O)OC)ccc12
92 | 170 to 171 | Cc1noc(C)c1Cn1cc(N2C(=O)c3ccccc3C2=O)cn1
93 | 122 | CCOc1cc(O)c(C(=O)C=Cc2ccc(OC)cc2)c(OC)c1
94 | 191 to 193 | CN(C1CCCCC1)S(=O)(=O)c1ccc(Cn2cnc3ccccc32)cc1
95 | 292 to 294 | O=c1c2ccc(O)cc2[nH]c2c([N+](=O)[O-])ccc(Cl)c12
96 | > 260 | CN(c1cccc(C(=O)O)c1)c1ccc(-c2ccc(C(=N)N)cc2)nn1
97 | > 290 | O=C1c2ccccc2-c2c1c(=O)[nH]c1ccccc21
98 | 149 to 151 | O=C(O)Cc1cc(O)c2c(c1)CCc1ccccc1C2=O
